In the experiment the target is T1, human type 1 glycine transporter (GlyT1) (Homo sapiens, UniProt P48067).
T1 construct: T98G cells (glioma cells) expressing human type 1 glycine transporter (GlyT1) were used; endogenous in cells; host or cells: T98G cells (human glioma cells)
T1 sequence (P48067 1-706): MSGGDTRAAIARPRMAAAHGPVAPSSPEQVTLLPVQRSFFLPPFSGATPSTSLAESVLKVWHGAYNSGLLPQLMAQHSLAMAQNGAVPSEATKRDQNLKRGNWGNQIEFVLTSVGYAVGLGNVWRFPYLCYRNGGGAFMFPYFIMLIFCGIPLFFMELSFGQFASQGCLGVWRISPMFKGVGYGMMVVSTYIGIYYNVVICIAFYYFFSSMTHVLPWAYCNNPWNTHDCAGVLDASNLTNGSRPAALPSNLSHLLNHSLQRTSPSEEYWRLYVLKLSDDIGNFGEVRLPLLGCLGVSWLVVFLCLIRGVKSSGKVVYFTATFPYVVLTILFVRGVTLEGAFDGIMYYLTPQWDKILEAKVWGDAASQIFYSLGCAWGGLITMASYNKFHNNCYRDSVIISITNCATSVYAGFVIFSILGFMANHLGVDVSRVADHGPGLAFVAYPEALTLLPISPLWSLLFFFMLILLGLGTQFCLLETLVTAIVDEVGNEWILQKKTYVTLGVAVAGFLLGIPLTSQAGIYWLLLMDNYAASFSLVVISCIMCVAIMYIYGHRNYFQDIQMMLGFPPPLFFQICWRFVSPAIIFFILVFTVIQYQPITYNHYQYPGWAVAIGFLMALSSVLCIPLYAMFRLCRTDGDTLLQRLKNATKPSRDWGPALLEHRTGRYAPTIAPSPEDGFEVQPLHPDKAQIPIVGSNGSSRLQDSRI
The experiment in a line: Glycine uptake inhibition experiment ([3H] glycine uptake in T98G cells expressing GlyT1). In kind it is cell-based. In short, it runs like this: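 T98G glioma cells expressing human GlyT1 were pretreated 10 min with compound in HEPES buffer pH 7.4 (0.2% BSA), then incubated with compound plus 250 nM final [3H]glycine for 15 min at room temperature. Intracellular radioactivity was counted after NaOH lysis; 10 μM ALX5407 defined non-specific uptake. IC50 came from 10^−9–10^−5 M curves.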

The results in this text go back to US20160159814A1, “GLYCINE TRANSPORTER INHIBITOR” (TAISHO PHARMACEUTICAL CO., LTD., priority 2013, published 2016).

Where two headings read alike, the source gives them in different places.

`C[C@H](O)c1cccc2c1C(F)(F)C(=O)N2Cc1cc(C(F)(F)F)ccn1` [Compound 96, 3,3-difluoro-4-[(1S)-1-hydroxyethyl]-1-{[4-(trifluoromethyl)pyridin-2-yl]methyl}-1,3-dihydro-2H-indol-2-one]: the IC50 (glycine uptake inhibition) is 51 nM.

For the compound `O=C1N(Cc2cncc(Cl)n2)c2cccc(C(O)C(F)F)c2C1(F)F` (single isomer, unassigned) [Compound 172, 1-[(6-chloropyrazin-2-yl)methyl]-4-(2,2-difluoro-1-hydroxyethyl)-3,3-difluoro-1,3-dihydro-2H-indol-2-one], the IC50 is 24 nM. That is a double-digit nanomolar value. As to `C[C@H](O)c1c(Cl)ccc2c1C(F)(F)C(=O)N2Cc1ccnc(C#N)c1` [Compound 107, 4-({5-chloro-3,3-difluoro-4-[(1S)-1-hydroxyethyl]-2-oxo-2,3-dihydro-1H-indol-1-yl}methyl)pyridine-2-carbonitrile], the IC50 (glycine uptake inhibition) was found to be 150 nM. In turn, `C[C@H](O)c1cccc2c1C(F)(F)C(=O)N2Cc1cc(Cl)nc(C#N)c1` [Compound 187, 6-chloro-4-({3,3-difluoro-4-[(1S)-1-hydroxyethyl]-2-oxo-2,3-dihydro-1H-indol-1-yl}methyl)pyridine-2-carbonitrile] registered an IC50 of 34 nM. That is a double-digit nanomolar value.

With `O=C1N(Cc2ccnc(F)c2)c2cccc(C(O)C(F)F)c2C1(F)F` (stereo not shown) [Compound 150, 4-(2,2-difluoro-1-hydroxyethyl)-3,3-difluoro-1-[(2-fluoropyridin-4-yl)methyl]-1,3-dihydro-2H-indol-2-one], the IC50 (glycine uptake inhibition) amounted to 310 nM. In other words, the sub-micromolar range. In turn, `O=C1N(Cc2ccc(C(F)(F)F)cn2)c2cccc(C(O)C(F)F)c2C1(F)F` (single isomer, unassigned) [Compound 169] gave a 50% inhibitory concentration (IC50) of 56 nM. The compound `Cn1c(CN2C(=O)C(F)(F)c3c([C@@H](O)C(F)(F)F)cccc32)nc2ccccc2c1=O` [Compound 37, 2-({3,3-difluoro-2-oxo-4-[(1R)-2,2,2-trifluoro-1-hydroxyethyl]-2,3-dihydro-1H-indol-1-yl}methyl)-3-methylquinazolin-4(3H)-one] had an IC50 (glycine uptake inhibition) of 43 nM. `O=C1N(Cc2ccnc(C(F)(F)F)c2)c2cccc(C(O)C(F)F)c2C1(F)F` (single isomer, unassigned) [Compound 191, 4-(2,2-difluoro-1-hydroxyethyl)-3,3-difluoro-1-{[2-(trifluoromethyl)pyridin-4-yl]methyl}-1,3-dihydro-2H-Indol-2-one] had an IC50 of 29 nM. Turning to `C[C@H](O)c1cccc2c1C(F)(F)C(=O)N2Cc1nc2ccccc2o1` [Compound 81, 1-(1,3-benzoxazol-2-ylmethyl)-3,3-difluoro-4-[(1S)-1-hydroxyethyl]-1,3-dihydro-2H-indol-2-one], the IC50 (glycine uptake inhibition) is 30 nM. `C[C@H](O)c1cccc2c1C(F)(F)C(=O)N2Cc1ccc(Cl)c(Cl)n1` [Compound 244, 1-[(5,6-dichloropyridin-2-yl)methyl]-3,3-difluoro-4-[(1S)-1-hydroxyethyl]-1,3-dihydro-2H-indol-2-one] registered an IC50 of 9.7 nM. This lies in the single-digit nanomolar range. `CC(O)c1c(F)ccc2c1C(F)(F)C(=O)N2Cc1ccnc(C#N)c1` (single isomer, unassigned) [Compound 182, 4-{[3,3,5-trifluoro-4-(1-hydroxyethyl)-2-oxo-2,3-dihydro-1H-indol-1-yl]methyl}pyridine-2-carbonitrile] displayed an IC50 of 1700 nM. On the same count and under the same terms, then `C[C@H](O)c1cccc2c1C(F)(F)C(=O)N2Cc1ccc(C(F)(F)F)c(C#N)n1` [Compound 216, 6-({3,3-difluoro-4-[(1S)-1-hydroxyethyl]-2-oxo-2,3-dihydro-1H-indol-1-yl}methyl)-3-(trifluoromethyl) pyridine-2-carbonitrile], with 9.4 nM; and `COc1ccc(CN2C(=O)C(F)(F)c3c([C@H](C)O)cccc32)nc1C#N` [Compound 217, 6-({3,3-difluoro-4-[(1S)-1-hydroxyethyl]-2-oxo-2,3-dihydro-1H-indol-1-yl}methyl)-3-methoxypyridine-2-carbonitrile], with 120 nM. For `N#Cc1cccc(CN2C(=O)C(F)(F)c3c(C(O)C(F)(F)F)cccc32)n1` (stereo not shown) [Compound 13, 6-{[3,3-difluoro-2-oxo-4-(2,2,2-trifluoro-1-hydroxyethyl)-2,3-dihydro-1H-indol-1-yl]methyl}pyridine-2-carbonitrile], the IC50 (glycine uptake inhibition) came out at 96 nM. This lies in the double-digit nanomolar range. As for `O=C1N(Cc2cccc(Cl)n2)c2cccc(C3(O)CC3)c2C1(F)F` [Compound 26, 1-[(6-chloropyridin-2-yl)methyl]-3,3-difluoro-4-(1-hydroxycyclo-propyl)-1,3-dihydro-2H-indol-2-one], for the setting “glycine uptake inhibition”, the IC50 is 1500 nM. Compound `COc1ccc(CN2C(=O)C(F)(F)c3c([C@H](C)O)cccc32)nc1` [Compound 106, 3,3-difluoro-4-[(1S)-1-hydroxyethyl]-1-[(5-methoxypydin-2-yl)methyl]-1,3-dihydro-2H-indol-2-one] yielded an IC50 (glycine uptake inhibition) of 810 nM. Compared with the last compound, the IC50 is about 1.9-fold lower.

Where the note is “glycine uptake inhibition”, `O=C1N(Cc2cncc(Cl)c2)c2cccc(C(O)C(F)(F)F)c2C1(F)F` (stereo not shown) [Compound 17, 1-[(5-chloropyridin-3-yl)methyl]-3,3-difluoro-4-(2,2,2-trifluoro-1-hydroxyethyl)-1,3-dihydro-2H-indol-2-one] came in with an IC50 of 72 nM.

With `C[C@H](O)c1cccc2c1C(F)(F)C(=O)N2Cc1ccnc(C2CC2)c1` [Compound 175, 1-[(2-cyclopropylpyridin-4-yl)methyl]-3,3-difluoro-4-[(1S)-1-hydroxyethyl]-1,3-dihydro-2H-indol-2-one], half-maximal inhibition (IC50) required 23 nM. `O=C1N(Cc2ccnc(C(F)F)c2)c2cccc([C@@H](O)C(F)(F)F)c2C1(F)F` [Compound 139, 1-[[2-(difluoromethyl)pyridin-4-yl]methyl]-3,3-difluoro-4-[(1R)-2,2,2-trifluoro-1-hydroxyethyl]-1,3-dihydro-2H-indol-2-one] yielded an IC50 (glycine uptake inhibition) of 45 nM. Consider `C[C@H](O)c1cccc2c1C(F)(F)C(=O)N2Cc1ccc(Cl)c(C#N)n1` [Compound 202, 3-chloro-6-({3,3-difluoro-4-[(1S)-1-hydroxyethyl]-2-oxo-2,3-dihydro-1H-indol-1-yl)methyl)pyridine-2-carbonitrile], for which the IC50 was determined as 6.9 nM. Regarding `CC(c1cccc(Cl)n1)N1C(=O)C(F)(F)c2c([C@H](C)O)cccc21` (stereo partly drawn) [Compound 51, 1-[1-(6-chloropyridin-2-yl)ethyl]-3,3-difluoro-4-[(1S)-1-hydroxyethyl]-1,3-dihydro-2H-indol-2-one], the IC50 (glycine uptake inhibition) came out at 260 nM. Turning to `C[C@H](O)c1cccc2c1C(F)(F)C(=O)N2Cc1cccnc1Cl` [Compound 210, 1-[(2-chloropyridin-3-yl)methyl]-3,3-difluoro-4-[(1S)-1-hydroxyethyl]-1,3-dihydro-2H-indol-2-one], the IC50 was 680 nM.

On to `C[C@H](O)c1cccc2c1C(F)(F)C(=O)N2Cc1ncc(F)cc1C#N` [Compound 233, 2-({3,3-difluoro-4-[(1S)-1-hydroxyethyl)-2-oxo-2,3-dihydro-1H-indol-1-yl}methyl)-5-fluoropyridine-3-carbonitrile], for which the IC50 stood at 180 nM.

As for `N#Cc1cccc(CN2C(=O)C(F)(F)c3c(C(O)C(F)(F)F)cccc32)n1` (single isomer, unassigned) [Compound 18, 6-{[3,3-difluoro-2-oxo-4-(2,2,2-trifluoro-1-hydroxyethyl)-2,3-dihydro-1H-indol-1-yl]methyl}pyridine-2-carbonitrile], the IC50 (glycine uptake inhibition) worked out at 3300 nM.

`Cn1c(=O)c(CN2C(=O)C(F)(F)c3c(C(O)C(F)F)cccc32)nc2ccccc21` (single isomer, unassigned) [Compound 167, 3-{[4-(2,2-difluoro-1-hydroxyethyl)-3,3-difluoro-2-oxo-2,3-dihydro-1H-indol-1-yl]methyl)-1-methylquinoxalin-2(1H)-one] had an IC50 of 62 nM. This counts as double-digit nanomolar. Regarding `C[C@H](O)c1cccc2c1C(F)(F)C(=O)N2Cc1ccc2cc[nH]c2n1` [Compound 115, 3,3-difluoro-4-[(1S)-1-hydroxyethyl]-1-(1H-pyrrolo[2,3-b]pyridin-6-ylmethyl)-1,3-dihydro-2H-indol-2-one], 98 nM corresponded to half-maximal inhibition (glycine uptake inhibition) (IC50). As for `C[C@H](O)c1cccc2c1C(F)(F)C(=O)N2Cc1cnc(Cl)cc1Cl` [Compound 223, 1-[(4,6-dichloropyridin-3-yl)methyl]-3,3-difluoro-4-[(1S)-1-hydroxyethyl]-1,3-dihydro-2H-indol-2-one], the IC50 came to 66 nM. In the case of `O=C1N(Cc2cncc(-n3nccn3)c2)c2cccc(C(O)C(F)F)c2C1(F)F` (single isomer, unassigned) [Compound 148, 4-(2,2-difluoro-1-hydroxyethyl)-3,3-difluoro-1-{[5-(2H-1,2,3-triazol-2-yl)pyridin-3-yl]methyl}-1,3-dihydro-2H-indol-2-one], for the setting “glycine uptake inhibition”, half-maximal inhibition (IC50) was put at 39 nM.
